Laboratory results: patent publication US12180207B2 (ARRAY BIOPHARMA INC., priority 2018, dated 2024)

Legend:
[1] = target: HEK-293 cells transfected with dox-inducible human wild type FGFR1 (Homo sapiens (Human), UniProt P11362); experiment: FGFR1 pERK cell assay; assay type: cell-based; conditions: HEK-293 dox-inducible FGFR1, 1 hour compound, 100 ng/ml FGF-acidic; maximum concentration 5 μM
Description: (§1) FGFR1 pERK Cell Assay: • HEK-293 cells transfected with doxycycline(dox)-inducible human wild type FGFR1 (SEQ ID NO: 1) were plated in a collagen or poly-D-lysine coated 96 well flat bottom plates at 4×10^5 cells/well in complete Dulbecco's Modified Eagle Medium (DMEM) containing 10% FBS and 1 μg/ml doxycycline and allowed to attach for 24 h at 37° C., 5% CO2. Cells were treated with compound using 1:3 serial dilutions with a maximum final concentration of 5 μM. Compound was incubated on cells for 1 hour at 37° C., 5% CO2. Cells were then stimulated with a final concentration of 100 ng/ml human FGF-acidic (R&D Systems Cat number 232-FA/CF) for 5 minutes at 37° C., 5% CO2. Medium was removed, and cells were lysed with lysis buffer containing phosphatase and protease inhibitors. Phospho ERK1/2 was measured using the Meso Scale Discovery sandwich assay (Meso Scale Discovery cat. no. K151DWD). The assay captures phospho ERK1/2 and detects with a sulfo-tagged total ERK1/2 antibody. The chemiluminescent signal was read on the Sector Imager Plate reader. 100 POC was determined using no test compound and 0 POC was determined using a control compound. The POC values were fit to a 4-parameter logistic curve as a function of the concentration of the compound, and the IC50 value is the point where the curve crosses 50 POC.

[2] = target: T1, HEK-293 cells transfected with dox-inducible human wild type FGFR3 (Homo sapiens (Human), UniProt P22607); experiment: FGFR3 pERK cell assay; assay type: cell-based; conditions: HEK-293 dox-inducible FGFR3, 1 hour compound, 100 ng/ml FGF-acidic; maximum concentration 5 μM
Description: as §1, with “FGFR3 pERK” for “FGFR1 pERK”, “with dox-inducible” for “with doxycycline(dox)-inducible”, “type FGFR3” for “type FGFR1”, “NO: 5)” for “NO: 1)”, “complete DMEM medium” for “complete Dulbecco's Modified Eagle Medium (DMEM)”, “test compounds” for “test compound”

[3] = target: HEK-293 cells transfected with dox-inducible human wild type FGFR2 (Homo sapiens (Human), UniProt P21802); experiment: FGFR2 pFGFR cell assay (ELISA); assay type: cell-based; conditions: HEK-293 dox-inducible FGFR2, 1 hour compound, 30 ng/ml FGF-acidic
Description: (§2) FGFR2 pFGFR Cell Assay: • HEK-293 cells transfected with dox-inducible human wild type FGFR2 (SEQ ID NO: 3) were plated in a collagen or poly-D-lysine coated 96 well flat bottom plates at 4×10^5 cells/well in complete DMEM medium containing 10% FBS and 1 μg/ml doxycycline and allowed to attach for 24 h at 37° C., 5% CO2. Cells were treated with compound using 1:3 serial dilutions with a maximum final concentration of 5 μM. Compound was incubated on cells for 1 hour at 37° C., 5% CO2. Cells were then stimulated with a final concentration of 30 ng/ml human FGF-acidic (R&D Systems Cat number 232-FA/CF) for 5 minutes at 37° C., 5% CO2. Medium was removed and cells were lysed with lysis buffer containing phosphatase and protease inhibitors. Phospho FGFR2 was measured by ELISA (R&D Systems cat. no. DYC684). The ELISA captures total FGFR2 and detects total phospho tyrosine. Optical density was measured for each well using a Versamax reader at a wavelength of 450 nm. 100 POC was determined using no test compounds and 0 POC was determined using a control compound. The POC values were fit to a 4-parameter logistic curve as a function of the concentration of the compound, and the IC50 value is the point where the curve crosses 50 POC.

[4] = target: dephosphorylated FGFR1 (SEQ ID NO: 1, amino acids 458 to 765) (Homo sapiens (Human), UniProt P11362); experiment: FGFR enzyme binding assay (HTRF tracer displacement), FGFR1; conditions: 5 nM dephosphorylated FGFR1, average of multiple determinations if made
Procedure, shortened: (§3)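 Kinase and tracer were incubated with compound for 60 minutes at 22° C. Tracer displacement was then measured by HTRF, and results were expressed as POC with 1 μM control inhibitor defining full displacement.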

[5] = target: phosphorylated FGFR3 (SEQ ID NO: 5, amino acids 449 to 759) (Homo sapiens (Human), UniProt P22607); experiment: FGFR enzyme binding assay (HTRF tracer displacement), FGFR3; conditions: 5 nM phosphorylated FGFR3, average of multiple determinations if made
Procedure, shortened: as §3

[6] = target: recombinant human FGFR1 catalytic domain (amino acids 308-731) (Homo sapiens (Human), UniProt P11362); experiment: FGFR1 enzyme activity assay (LanthaScreen TR-FRET); assay type: biochemical; conditions: 20 min incubation at 22° C., average of multiple determinations if made, read-out: FGFR1 Enz FRET IC50
Procedure, shortened: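 His-tagged FGFR1 kinase domain with 100 nM Alexa Fluor 647-poly-GT peptide and ATP in pH 7.5 HEPES/MgCl2 buffer with 2% DMSO, 20 min at 22 °C. Quenched with EDTA plus 2 nM Eu-PY20 antibody and read after 60 min. IC50 comes from a 4-parameter fit of percent of control.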

[7] = target: recombinant human FGFR3 (amino acids R397-T806) (Homo sapiens (Human), UniProt P22607); experiment: FGFR3 enzyme activity assay (LanthaScreen TR-FRET); assay type: biochemical; conditions: 25 μM ATP, 10 min incubation at 22° C., average of multiple determinations if made, read-out: FGFR3 Enz FRET IC50
Procedure, shortened: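 GST-HIS6-tagged human FGFR3 (R397-T806) was reacted with 100 nM Alexa Fluor 647-Poly-GT substrate and 25 μM ATP plus compound in HEPES/MgCl2/Triton buffer, pH 7.5, 2% DMSO, for 10 min at 22 °C.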

[8] = target: FGFR1 (SEQ ID NO: 1, amino acids 458-765) (Homo sapiens (Human), UniProt P11362); experiment: LC/MS FGFR1 kobs assay (covalent protein modification); assay type: binding; conditions: 500 nM FGFR1, 3 μM compound
Procedure, shortened: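 Covalent labeling of FGFR1 kinase domain (aa 458-765) tracked over time by intact-protein LC/MS after formic acid quench. kobs derived by fitting DMSO-normalized percent unmodified FGFR1 to an exponential decay model.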

[9] = target: T1, HEK-293 cells transfected with dox-inducible human wild type FGFR3; experiment: FGFR3 pFGFR cell assay (ELISA); assay type: cell-based; conditions: HEK-293 dox-inducible FGFR3, 1 hour compound, 100 ng/ml FGF-acidic
Description: as §2, with “FGFR3” for “FGFR2”, “5)” for “3)”, “top” for “maximum”, “100” for “30”, “FGF-acidic” for “FGF-acidic (R&D Systems Cat number 232-FA/CF)”, “cat DYC2719).” for “cat. no. DYC684).”

[10] = target: recombinant human FGFR2 cytoplasmic domain (amino acids 403-822) (Homo sapiens (Human), UniProt P21802); experiment: FGFR2 enzyme activity assay (LanthaScreen TR-FRET); assay type: biochemical; conditions: 15 μM ATP, 20 min incubation at 22° C., average of multiple determinations if made, read-out: FGFR2 Enz FRET IC50
Procedure, shortened: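 Substrate phosphorylation was read by TR-FRET using Eu-PY20 antibody (60 min, 22 °C) after a 20 min, 22 °C reaction. The reaction used 15 μM ATP, 100 nM fluorescent poly-GT peptide and His-tagged FGFR2 403-822 ([…]) at pH 7.5 with 2% DMSO.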

[11] = target: FGFR3 (SEQ ID NO: 5, amino acids 449-759) (Homo sapiens (Human), UniProt P22607); experiment: LC/MS FGFR3 kobs assay (covalent protein modification); assay type: binding; conditions: 500 nM FGFR3, 3 μM compound
Procedure, shortened: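 Each time-point sample was quenched in 0.4% formic acid and analyzed by Q-TOF LC/MS. Deconvoluted signals gave percent modified and unmodified protein, normalized to the DMSO control, and the decay of unmodified protein yielded kobs.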

recombinant human FGFR1 catalytic domain (amino acids 308-731), sequence (P11362 other isoform, or with tags, fused parts or gaps): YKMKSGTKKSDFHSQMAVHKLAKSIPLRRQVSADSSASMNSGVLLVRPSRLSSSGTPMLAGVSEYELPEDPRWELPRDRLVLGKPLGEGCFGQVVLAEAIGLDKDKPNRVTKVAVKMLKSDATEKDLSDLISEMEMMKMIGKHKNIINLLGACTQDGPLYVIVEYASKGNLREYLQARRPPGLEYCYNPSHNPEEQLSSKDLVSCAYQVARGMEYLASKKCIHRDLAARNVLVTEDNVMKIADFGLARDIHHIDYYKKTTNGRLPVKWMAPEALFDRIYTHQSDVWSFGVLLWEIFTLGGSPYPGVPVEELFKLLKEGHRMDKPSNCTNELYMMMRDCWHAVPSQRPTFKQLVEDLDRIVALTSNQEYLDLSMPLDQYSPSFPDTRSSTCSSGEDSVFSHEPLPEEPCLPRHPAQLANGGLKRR
dephosphorylated FGFR1 (SEQ ID NO: 1, amino acids 458 to 765), sequence (P11362 458-765): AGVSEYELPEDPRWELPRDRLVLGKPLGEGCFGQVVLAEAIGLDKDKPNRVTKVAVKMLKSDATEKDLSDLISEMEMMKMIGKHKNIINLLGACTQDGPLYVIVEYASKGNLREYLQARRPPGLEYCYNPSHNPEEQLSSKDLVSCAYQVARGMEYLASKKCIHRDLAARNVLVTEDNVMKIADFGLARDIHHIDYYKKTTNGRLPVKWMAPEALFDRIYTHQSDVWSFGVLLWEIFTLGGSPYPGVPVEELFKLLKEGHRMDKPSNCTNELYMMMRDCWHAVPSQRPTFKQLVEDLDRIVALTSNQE
T1 sequence (P22607 23-806): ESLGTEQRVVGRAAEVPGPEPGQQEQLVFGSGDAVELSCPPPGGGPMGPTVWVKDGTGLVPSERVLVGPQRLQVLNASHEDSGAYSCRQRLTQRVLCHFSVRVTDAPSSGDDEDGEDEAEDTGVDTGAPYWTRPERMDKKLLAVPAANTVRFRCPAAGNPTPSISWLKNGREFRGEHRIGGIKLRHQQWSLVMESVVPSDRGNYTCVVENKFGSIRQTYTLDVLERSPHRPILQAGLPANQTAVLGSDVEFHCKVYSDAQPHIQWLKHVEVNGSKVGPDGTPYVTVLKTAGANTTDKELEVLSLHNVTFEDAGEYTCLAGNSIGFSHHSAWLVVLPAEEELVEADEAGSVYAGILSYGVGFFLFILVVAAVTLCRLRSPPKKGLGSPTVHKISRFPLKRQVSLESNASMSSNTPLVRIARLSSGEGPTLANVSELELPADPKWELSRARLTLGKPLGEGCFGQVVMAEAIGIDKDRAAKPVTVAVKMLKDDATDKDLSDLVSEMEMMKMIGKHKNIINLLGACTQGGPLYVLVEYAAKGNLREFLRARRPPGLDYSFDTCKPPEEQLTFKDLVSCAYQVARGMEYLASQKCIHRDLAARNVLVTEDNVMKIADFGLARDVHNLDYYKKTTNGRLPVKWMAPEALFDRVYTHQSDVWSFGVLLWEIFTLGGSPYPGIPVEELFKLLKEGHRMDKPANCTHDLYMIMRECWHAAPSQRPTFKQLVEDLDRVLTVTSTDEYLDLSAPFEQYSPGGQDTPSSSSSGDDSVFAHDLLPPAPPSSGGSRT
phosphorylated FGFR3 (SEQ ID NO: 5, amino acids 449 to 759), sequence (P22607 449-759): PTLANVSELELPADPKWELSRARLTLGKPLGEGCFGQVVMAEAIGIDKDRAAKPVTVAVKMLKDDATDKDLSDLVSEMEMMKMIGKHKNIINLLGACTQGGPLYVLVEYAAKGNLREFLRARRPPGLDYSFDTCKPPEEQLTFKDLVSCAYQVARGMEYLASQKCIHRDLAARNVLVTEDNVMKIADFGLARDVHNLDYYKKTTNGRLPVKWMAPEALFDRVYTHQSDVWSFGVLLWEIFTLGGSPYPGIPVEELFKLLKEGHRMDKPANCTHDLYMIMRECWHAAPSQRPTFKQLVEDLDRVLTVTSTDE
recombinant human FGFR3 (amino acids R397-T806), sequence (P22607 397-806): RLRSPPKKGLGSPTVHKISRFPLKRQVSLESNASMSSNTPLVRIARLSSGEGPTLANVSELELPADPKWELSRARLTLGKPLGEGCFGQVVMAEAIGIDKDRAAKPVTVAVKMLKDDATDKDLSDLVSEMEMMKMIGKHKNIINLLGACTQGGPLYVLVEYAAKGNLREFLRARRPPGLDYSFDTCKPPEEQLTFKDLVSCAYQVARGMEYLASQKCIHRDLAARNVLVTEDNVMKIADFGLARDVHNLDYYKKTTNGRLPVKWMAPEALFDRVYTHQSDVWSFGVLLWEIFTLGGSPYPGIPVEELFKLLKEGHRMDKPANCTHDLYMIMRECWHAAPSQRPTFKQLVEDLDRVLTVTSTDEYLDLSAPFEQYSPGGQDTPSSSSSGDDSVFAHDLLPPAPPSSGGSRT
recombinant human FGFR2 cytoplasmic domain (amino acids 403-822), sequence (P21802 402-821): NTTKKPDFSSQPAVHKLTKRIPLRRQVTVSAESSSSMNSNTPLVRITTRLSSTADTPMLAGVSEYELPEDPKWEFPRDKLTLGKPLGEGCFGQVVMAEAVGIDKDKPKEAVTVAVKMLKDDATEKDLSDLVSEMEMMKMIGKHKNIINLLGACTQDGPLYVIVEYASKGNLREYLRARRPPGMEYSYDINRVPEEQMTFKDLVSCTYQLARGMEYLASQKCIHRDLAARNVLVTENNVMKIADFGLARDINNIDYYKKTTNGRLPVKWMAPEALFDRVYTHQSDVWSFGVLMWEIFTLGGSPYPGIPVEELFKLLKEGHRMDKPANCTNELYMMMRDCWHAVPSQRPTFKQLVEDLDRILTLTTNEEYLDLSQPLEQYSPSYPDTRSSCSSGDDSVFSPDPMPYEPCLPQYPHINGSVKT
HEK-293 cells transfected with dox-inducible human wild type FGFR2, sequence (P21802 22-821): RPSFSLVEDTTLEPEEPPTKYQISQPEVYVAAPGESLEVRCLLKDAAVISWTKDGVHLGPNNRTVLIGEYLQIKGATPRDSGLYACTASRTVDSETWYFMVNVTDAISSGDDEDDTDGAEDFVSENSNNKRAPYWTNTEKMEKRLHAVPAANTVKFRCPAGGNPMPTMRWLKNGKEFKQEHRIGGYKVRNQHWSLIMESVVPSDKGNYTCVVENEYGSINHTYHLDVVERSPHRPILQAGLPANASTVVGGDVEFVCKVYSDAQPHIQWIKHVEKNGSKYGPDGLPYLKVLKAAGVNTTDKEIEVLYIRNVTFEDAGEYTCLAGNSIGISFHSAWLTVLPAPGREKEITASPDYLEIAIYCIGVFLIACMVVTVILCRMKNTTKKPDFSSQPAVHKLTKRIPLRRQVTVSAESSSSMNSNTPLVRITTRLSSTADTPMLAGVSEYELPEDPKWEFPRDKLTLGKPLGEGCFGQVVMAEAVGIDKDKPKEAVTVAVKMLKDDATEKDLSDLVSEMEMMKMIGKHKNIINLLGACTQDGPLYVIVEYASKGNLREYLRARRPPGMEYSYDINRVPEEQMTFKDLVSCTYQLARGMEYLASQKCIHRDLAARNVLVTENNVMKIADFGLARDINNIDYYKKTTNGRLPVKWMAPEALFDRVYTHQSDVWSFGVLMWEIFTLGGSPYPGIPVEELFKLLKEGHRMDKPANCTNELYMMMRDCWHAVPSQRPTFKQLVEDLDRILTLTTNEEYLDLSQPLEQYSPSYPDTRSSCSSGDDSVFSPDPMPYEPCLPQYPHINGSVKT
FGFR3 (SEQ ID NO: 5, amino acids 449-759), sequence (P22607 449-759): as the sequence (P22607 449-759) above
FGFR1 (SEQ ID NO: 1, amino acids 458-765), sequence (P11362 458-765): as the sequence (P11362 458-765) above
HEK-293 cells transfected with dox-inducible human wild type FGFR1, sequence (P11362 22-822): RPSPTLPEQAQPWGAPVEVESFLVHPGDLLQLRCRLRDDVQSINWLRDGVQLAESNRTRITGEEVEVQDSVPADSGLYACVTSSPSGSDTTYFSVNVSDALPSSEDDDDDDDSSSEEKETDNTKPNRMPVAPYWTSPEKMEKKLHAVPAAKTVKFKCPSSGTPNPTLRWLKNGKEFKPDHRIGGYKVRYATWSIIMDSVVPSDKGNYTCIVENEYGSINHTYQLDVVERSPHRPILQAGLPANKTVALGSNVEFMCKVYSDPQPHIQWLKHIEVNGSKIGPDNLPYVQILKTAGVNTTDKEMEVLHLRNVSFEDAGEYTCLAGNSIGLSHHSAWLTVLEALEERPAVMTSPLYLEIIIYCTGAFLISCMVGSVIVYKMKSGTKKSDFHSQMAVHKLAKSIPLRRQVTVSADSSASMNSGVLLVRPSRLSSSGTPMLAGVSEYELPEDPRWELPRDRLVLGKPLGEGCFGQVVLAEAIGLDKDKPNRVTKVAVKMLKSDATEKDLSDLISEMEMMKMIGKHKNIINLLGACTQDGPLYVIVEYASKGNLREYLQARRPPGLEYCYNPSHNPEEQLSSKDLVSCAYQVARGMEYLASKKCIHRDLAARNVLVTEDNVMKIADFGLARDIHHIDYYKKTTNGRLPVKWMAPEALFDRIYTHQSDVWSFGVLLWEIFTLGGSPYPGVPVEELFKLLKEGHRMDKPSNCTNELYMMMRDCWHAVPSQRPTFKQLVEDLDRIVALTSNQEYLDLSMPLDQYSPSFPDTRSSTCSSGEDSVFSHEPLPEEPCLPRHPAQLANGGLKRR

Row | Compound | IC50 [1] [nM] | IC50 [2] [nM] | IC50 [3] [nM] | IC50 [4] [nM] | IC50 [5] [nM] | IC50 [6] [nM] | IC50 [7] [nM] | FGFR1 Enz kobs [8] [min⁻¹] | IC50 [9] [nM] | IC50 [10] [nM] | FGFR3 Enz kobs [11] [min⁻¹]
1 | COc1cc(-c2cnn(C3CCN(C(=O)/C=C/CN(C)C)CC3)c2)cn2ncc(C#N)c12 [Example 144, (E)-6-(1-(1-(4-(dimethylamino)benoyl)piperidin-4-yl)-1H-pyrazol-4-yl)-4-methoxypyrazol14 5o[1,5-a]pyridine-3-carbonitrile] | – | – | 34 | – | – | – | – | – | – | – | –
2 | COc1cc(-c2cnn(C3CCN(C(=O)C4CN(C(=O)C#CCN(C)C)C4)CC3)c2)cn2ncc(C#N)c12 [Example 176, 6-(1-(1-(1-(4-(dimethylamino)but-2-ynoyl)azetidine-3-carbonyl)piperidin-4-yl)-1H-pyrazol-4-yl)-4-methoxypyrazolo[1,5-a]pyridine-3-carbonitrile] | – | – | – | 136 | 15 | 1200 | 1160 | 0.0497 | 18 | – | –

Further lines, results first:

Row | IC50 [1] [nM] | IC50 [2] [nM] | IC50 [3] [nM] | IC50 [4] [nM] | IC50 [5] [nM] | IC50 [6] [nM] | IC50 [7] [nM] | FGFR1 Enz kobs [8] [min⁻¹] | IC50 [9] [nM] | IC50 [10] [nM] | FGFR3 Enz kobs [11] [min⁻¹] | Compound
3 | 769 | 119 | 424 | – | – | – | – | – | – | – | – | COc1cc(-c2cnn(C3CCN(C(=O)C4CN(C(=O)/C=C/CF)C4)CC3)c2)cn2ncc(C#N)c12 [Example 142]
4 | – | – | – | 70 | 12 | 14 | 3 | – | 12 | 9 | 0.1008 | C=CS(=O)(=O)N1CC(C(=O)N2CCC(n3cc(-c4cc(OC)c5c(C#N)cnn5c4)cn3)CC2)C1 [Example 192, 4-methoxy-6-(1-(1-(1-(vinylsulfonyl)azetidine-3-carbonyl)piperidin-4-yl)-1H-pyrazol-4-yl)pyrazolo[1,5-a]pyridine-3-carbonitrile]
5 | – | – | – | 50 | 4 | 19 | 5 | – | 14 | 7 | 0.02572 | C=CS(=O)(=O)N1CCC2(CC1)CC(C(=O)N1CCC(n3cc(-c4cc(OC)c5c(C#N)cnn5c4)cn3)CC1)C2 [Example 195, 4-methoxy-6-(1-(1-(7-(vinylsulfonyl)-7-azaspiro[3.5]nonane-2-carbonyl)piperidin-4-yl)-1H-pyrazol-4-yl)pyrazolo[1,5-a]pyridine-3-carbonitrile]
